US4980163A, “Novel bacteriocin compositions for use as enhanced broad range bactericides and methods of preventing and treating microbial infection” (Public Health Research Institute of the City of New York, priority 1989, dated 1990)
Several values for one entry are separate records, joined by “and”; a condition that tells them apart may be missing. Identical values can stand only once. Where no end group is shown, it is not given here.

Tested on: Staphylococcus aureus
Experiment: Bactericidal activity in milk, percent bacterial survival (Example 1, Table 1)
Type: cell-based
Details: for % survival 2 hr: initial viable counts 5 × 10^7 cfu/ml
Procedure: All tests in the following examples were performed at 37° C. The efficacy of the enhanced broad range bactericides was determined by assaying bactericidal activity as measured by the percent bacterial survival after treatment with the bactericide. Generally, after incubation of a 10^7 cell per ml suspension of target species with the novel bactericide for specified lengths of time, bacteria were collected by centrifugation for 2 minutes. The bacterial pellet was washed free of the bactericide with a rescue buffer, termed herein Phage buffer (50 mM Tris-HCl buffer pH 7.8, 1 mM MgSO4, 4 mM CaCl2, 0.1M NaCl, and 0.1% gelatin), resuspended and serially diluted into Phage buffer, and 100 μl of the suspended bacteria were spread on nutrient agar plates. Surviving bacteria were determined by scoring colony forming units (CFU) after incubation for 24-48 hours at 37° C. An effective bactericide according to this invention is one which allows less than 0.1% of the initial viable count of the bacteria to survive.
Staphylococcus aureus cells were suspended and incubated in milk at 37° C. for 2 hours with various concentrations of lysostaphin, nisin, or a combination of lysostaphin and nisin in the milk. The bactericidal efficacy of the bactericides was estimated by determining the percent survival of bacteria as described above.

Substance	% survival 2 hr (Lysostaphin 1.0 μg/ml, Nisin 0, milk, 37° C.)	log reduction in viable cells (Lysostaphin alone 1.0 μg/ml in milk)	% survival 2 hr (Nisin 0.2 μg/ml, Lysostaphin 0, milk, 37° C.) [%]	% survival 2 hr (Nisin 0.5 μg/ml, Lysostaphin 0, milk, 37° C.) [%]	% survival 2 hr (Nisin 1.0 μg/ml, Lysostaphin 0, milk, 37° C.) [%]	% survival 2 hr (Nisin 2.0 μg/ml, Lysostaphin 0, milk, 37° C.)	% survival 2 hr (Nisin 4.0 μg/ml, Lysostaphin 0, milk, 37° C.) [%]	bactericidal activity in milk (in words) (milk, 37° C.)
Lysostaphin	< 10^-3%	more than a five log reduction	–	–	–	–	–	–
Nisin (ITSISLCTPGCKTGALMGCNMKTATCHCSIHVSK; also: lantibiotic nisin-A: lanthionine rings and dehydrated residues, places not given here; UniProt P13068 24-57, looked up) [lanthionine containing peptide bacteriocin produced by Streptococcus lactis]	–	–	45	33	9	2.5% and 0.5%	0.5	little practical bactericidal activity
